Measured values published in patent US8952024B2, “Herbicidal pyrimidone derivatives” (E I du Pont de Nemours and Company, priority 2009, dated 2015).

Tests used:
Type in all cases: in vivo
[1] = system: barnyardgrass (Echinochloa crus-galli); experiment: Test A pre-/postemergence plant response
Outline: (§1)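 Injury scores (0, no effect; 100, complete control) come from visual comparison with untreated controls roughly ten days post-treatment. Test chemicals in a surfactant-containing non-phytotoxic solvent were applied as a directed soil spray preemergence and to one- to two-leaf seedlings postemergence.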

[2] = system: corn (Zea mays); experiment: Test A pre-/postemergence plant response
Outline: as §1

[3] = system: giant foxtail (Setaria faberii); experiment: Test A pre-/postemergence plant response
Outline: as §1

[4] = system: large crabgrass (Digitaria sanguinalis); experiment: Test A pre-/postemergence plant response
Outline: as §1

[5] = system: morningglory (Ipomoea spp.); experiment: Test A pre-/postemergence plant response
Outline: as §1

[6] = system: pigweed (Amaranthus retroflexus); experiment: Test A pre-/postemergence plant response
Outline: as §1

[7] = system: velvetleaf (Abutilon theophrasti); experiment: Test A pre-/postemergence plant response
Outline: as §1

[8] = system: wheat (Triticum aestivum); experiment: Test A pre-/postemergence plant response
Outline: as §1

[9] = system: canarygrass (Phalaris minor); experiment: Test B postemergence plant response; conditions: for Canarygrass plant response rating (0 to 100 scale): 62 g ai/ha, 0 is no effect, 13 to 15 days
Outline: (§2)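 Plants at the 1- to 4-leaf stage (2 to 18 cm tall), grown in pots of peat moss/vermiculite medium with wetting agent and starter nutrients, received postemergence applications of test chemicals. After 13 to 15 days in a greenhouse, injury was rated visually against untreated controls on a 0 (no effect) to 100 (complete control) scale.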

[10] = system: chickweed (Stellaria media); experiment: Test B postemergence plant response; conditions: for Chickweed plant response rating (0 to 100 scale): 62 g ai/ha, 0 is no effect, 13 to 15 days
Outline: as §2

[11] = system: windgrass (Apera spica-venti); experiment: Test B postemergence plant response; conditions: for Windgrass plant response rating (0 to 100 scale): 62 g ai/ha, postemergence, 0 is no effect, 100 is complete control, 13 to 15 days; for Plant response rating, Windgrass: Postemergence
Outline: as §2

[12] = system: winter barley (Hordeum vulgare); experiment: Test B postemergence plant response; conditions: for Barley plant response rating (0 to 100 scale): 62 g ai/ha, 0 is no effect, 13 to 15 days
Outline: as §2

[13] = Postemergence, 125 g ai/ha, 0 to 100 scale where 0 is no effect and 100 is complete control
[14] = Postemergence, 500 g ai/ha, 0 to 100 scale, 0 = no effect, 100 = complete control, approx. ten days
[15] = Preemergence, 125 g ai/ha, 0 to 100 scale, 0 = no effect, 100 = complete control
[16] = Preemergence, 500 g ai/ha, visual injury, 0 to 100 scale (0 no effect, 100 complete control), approx. ten days
[17] = 31 g ai/ha, postemergence, scale 0 to 100, 0 is no effect, 100 is complete control
[18] = postemergence, 100 is complete control
[19] = Postemergence, 125 g ai/ha, scale 0 to 100 (0 no effect, 100 complete control)
[20] = Postemergence, 250 g ai/ha, scale 0 to 100 (0 no effect, 100 complete control)
[21] = 125 g ai/ha, scale 0 to 100 (0 no effect, 100 complete control)
[22] = Postemergence, 31 g ai/ha, 0 to 100 scale (0 no effect, 100 complete control)

Structure (SMILES): COCCn1c(-c2cc(F)cc(F)c2)ncc(C(=O)C2=C(O)CCCC2=O)c1=O [Compound 119]
- Plant response rating, Barnyardgrass [1, 13]: 80
- Plant response rating, Barnyardgrass [1, 14]: 90
- Plant response rating, Barnyardgrass [1, 15]: 70
- Plant response rating, Barnyardgrass [1, 16]: 100
- Plant response rating, Corn [2, 13]: 0
- Plant response rating, Corn [2, 14]: 70
- Plant response rating, Corn [2, 15]: 20
- Plant response rating, Corn [2, 16]: 30
- Plant response rating, Foxtail, Giant [3, 13]: 70
- Plant response rating, Foxtail, Giant [3, 14]: 90
- Plant response rating, Foxtail, Giant [3, 15]: 90
- Plant response rating, Foxtail, Giant [3, 16]: 100
- Plant response rating, Crabgrass, Large [4, 13]: 80
- Plant response rating, Crabgrass, Large [4, 14]: 90
- Plant response rating, Crabgrass, Large [4, 15]: 100
- Plant response rating, Crabgrass, Large [4, 16]: 100
- Plant response rating, Morningglory [5, 13]: 90
- Plant response rating, Morningglory [5, 14]: 100
- Plant response rating, Morningglory [5, 15]: 60
- Plant response rating, Morningglory [5, 16]: 90
- Plant response rating, Pigweed [6, 13]: 100
- Plant response rating, Pigweed [6, 14]: 100
- Plant response rating, Pigweed [6, 15]: 100
- Plant response rating, Pigweed [6, 16]: 100
- Plant response rating, Velvetleaf [7, 13]: 100
- Plant response rating, Velvetleaf [7, 14]: 100
- Plant response rating, Velvetleaf [7, 15]: 90
- Plant response rating, Velvetleaf [7, 16]: 100
- Plant response rating, Wheat [8, 13]: 50
- Plant response rating, Wheat [8, 14]: 60
- Plant response rating, Wheat [8, 15]: 20
- Plant response rating, Wheat [8, 16]: 60
- Plant response rating, Canarygrass [9, 17]: 5
- Canarygrass plant response rating (0 to 100 scale) [9, 18]: 5
- Plant response rating, Canarygrass [9, 19]: 30
- Plant response rating, Canarygrass [9, 20]: 30
- Plant response rating, Chickweed [10, 17]: 70
- Chickweed plant response rating (0 to 100 scale) [10, 18]: 80
- Plant response rating, Chickweed [10, 19]: 100
- Plant response rating, Chickweed [10, 20]: 100
- Windgrass plant response rating (0 to 100 scale) [11]: 85
- Plant response rating, Windgrass [11, 21]: 100
- Plant response rating, Barley [12, 17]: 0
- Barley plant response rating (0 to 100 scale) [12, 18]: 0
- Plant response rating, Barley [12, 19]: 5
- Plant response rating, Barley [12, 20]: 5

Structure (SMILES): COCCCn1c(-c2cc(F)cc(F)c2)ncc(C(=O)C2=C(O)CCCC2=O)c1=O [Compound 120]
- Plant response rating, Barnyardgrass [1, 13]: 90
- Plant response rating, Barnyardgrass [1, 14]: 90
- Plant response rating, Barnyardgrass [1, 15]: 70
- Plant response rating, Barnyardgrass [1, 16]: 100
- Plant response rating, Corn [2, 13]: 10
- Plant response rating, Corn [2, 14]: 50
- Plant response rating, Corn [2, 15]: 20
- Plant response rating, Corn [2, 16]: 30
- Plant response rating, Foxtail, Giant [3, 13]: 80
- Plant response rating, Foxtail, Giant [3, 14]: 90
- Plant response rating, Foxtail, Giant [3, 15]: 90
- Plant response rating, Foxtail, Giant [3, 16]: 100
- Plant response rating, Crabgrass, Large [4, 13]: 90
- Plant response rating, Crabgrass, Large [4, 14]: 100
- Plant response rating, Crabgrass, Large [4, 15]: 100
- Plant response rating, Crabgrass, Large [4, 16]: 100
- Plant response rating, Morningglory [5, 13]: 100
- Plant response rating, Morningglory [5, 14]: 100
- Plant response rating, Morningglory [5, 15]: 30
- Plant response rating, Morningglory [5, 16]: 90
- Plant response rating, Pigweed [6, 13]: 90
- Plant response rating, Pigweed [6, 14]: 100
- Plant response rating, Pigweed [6, 15]: 100
- Plant response rating, Pigweed [6, 16]: 100
- Plant response rating, Velvetleaf [7, 13]: 100
- Plant response rating, Velvetleaf [7, 14]: 100
- Plant response rating, Velvetleaf [7, 15]: 80
- Plant response rating, Velvetleaf [7, 16]: 100
- Plant response rating, Wheat [8, 13]: 20
- Plant response rating, Wheat [8, 14]: 70
- Plant response rating, Wheat [8, 15]: 0
- Plant response rating, Wheat [8, 16]: 70
- Plant response rating, Canarygrass [9, 17]: 0
- Canarygrass plant response rating (0 to 100 scale) [9, 18]: 30
- Plant response rating, Canarygrass [9, 19]: 55
- Plant response rating, Canarygrass [9, 20]: 55
- Plant response rating, Chickweed [10, 17]: 60
- Chickweed plant response rating (0 to 100 scale) [10, 18]: 75
- Plant response rating, Chickweed [10, 19]: 85
- Plant response rating, Chickweed [10, 20]: 100
- Windgrass plant response rating (0 to 100 scale) [11]: 80
- Plant response rating, Windgrass [11, 21]: 90
- Barley plant response rating (0 to 100 scale) [12, 18]: 5
- Plant response rating, Barley [12, 19]: 5
- Plant response rating, Barley [12, 20]: 5

Structure (SMILES): CCCCn1c(-c2cc(F)cc(F)c2)ncc(C(=O)C2=C(O)CCCC2=O)c1=O [Compound 121]
- Plant response rating, Barnyardgrass [1, 13]: 80
- Plant response rating, Barnyardgrass [1, 14]: 100
- Plant response rating, Barnyardgrass [1, 15]: 20
- Plant response rating, Barnyardgrass [1, 16]: 100
- Plant response rating, Corn [2, 13]: 0
- Plant response rating, Corn [2, 14]: 40
- Plant response rating, Corn [2, 15]: 0
- Plant response rating, Corn [2, 16]: 30
- Plant response rating, Foxtail, Giant [3, 13]: 90
- Plant response rating, Foxtail, Giant [3, 14]: 90
- Plant response rating, Foxtail, Giant [3, 15]: 80
- Plant response rating, Foxtail, Giant [3, 16]: 100
- Plant response rating, Crabgrass, Large [4, 13]: 80
- Plant response rating, Crabgrass, Large [4, 14]: 100
- Plant response rating, Crabgrass, Large [4, 15]: 90
- Plant response rating, Crabgrass, Large [4, 16]: 100
- Plant response rating, Morningglory [5, 13]: 100
- Plant response rating, Morningglory [5, 14]: 100
- Plant response rating, Morningglory [5, 15]: 0
- Plant response rating, Morningglory [5, 16]: 70
- Plant response rating, Pigweed [6, 13]: 100
- Plant response rating, Pigweed [6, 14]: 100
- Plant response rating, Pigweed [6, 15]: 80
- Plant response rating, Pigweed [6, 16]: 100
- Plant response rating, Velvetleaf [7, 13]: 100
- Plant response rating, Velvetleaf [7, 14]: 100
- Plant response rating, Velvetleaf [7, 15]: 80
- Plant response rating, Velvetleaf [7, 16]: 100
- Plant response rating, Wheat [8, 13]: 30
- Plant response rating, Wheat [8, 14]: 60
- Plant response rating, Wheat [8, 15]: 0
- Plant response rating, Wheat [8, 16]: 50
- Plant response rating, Canarygrass [9, 17]: 0
- Canarygrass plant response rating (0 to 100 scale) [9, 18]: 5
- Plant response rating, Canarygrass [9, 19]: 5
- Plant response rating, Canarygrass [9, 20]: 30
- Plant response rating, Chickweed [10, 17]: 100
- Chickweed plant response rating (0 to 100 scale) [10, 18]: 100
- Plant response rating, Chickweed [10, 19]: 100
- Plant response rating, Chickweed [10, 20]: 100
- Windgrass plant response rating (0 to 100 scale) [11]: 98
- Plant response rating, Windgrass [11, 21]: 100
- Plant response rating, Barley [12, 17]: 0
- Barley plant response rating (0 to 100 scale) [12, 18]: 5
- Plant response rating, Barley [12, 19]: 5
- Plant response rating, Barley [12, 20]: 10

Structure (SMILES): COCCn1c(-c2cccc(F)c2)ncc(C(=O)C2=C(O)CCCC2=O)c1=O [Compound 123]
- Plant response rating, Barnyardgrass [1, 13]: 80
- Plant response rating, Barnyardgrass [1, 14]: 90
- Plant response rating, Barnyardgrass [1, 15]: 50
- Plant response rating, Barnyardgrass [1, 16]: 100
- Plant response rating, Corn [2, 13]: 20
- Plant response rating, Corn [2, 14]: 70
- Plant response rating, Corn [2, 15]: 0
- Plant response rating, Corn [2, 16]: 30
- Plant response rating, Foxtail, Giant [3, 13]: 70
- Plant response rating, Foxtail, Giant [3, 14]: 80
- Plant response rating, Foxtail, Giant [3, 15]: 50
- Plant response rating, Foxtail, Giant [3, 16]: 100
- Plant response rating, Crabgrass, Large [4, 13]: 80
- Plant response rating, Crabgrass, Large [4, 14]: 90
- Plant response rating, Crabgrass, Large [4, 15]: 100
- Plant response rating, Crabgrass, Large [4, 16]: 100
- Plant response rating, Morningglory [5, 13]: 100
- Plant response rating, Morningglory [5, 14]: 100
- Plant response rating, Morningglory [5, 15]: 70
- Plant response rating, Pigweed [6, 13]: 100
- Plant response rating, Pigweed [6, 14]: 100
- Plant response rating, Pigweed [6, 15]: 90
- Plant response rating, Pigweed [6, 16]: 100
- Plant response rating, Velvetleaf [7, 13]: 100
- Plant response rating, Velvetleaf [7, 14]: 100
- Plant response rating, Velvetleaf [7, 15]: 70
- Plant response rating, Velvetleaf [7, 16]: 100
- Plant response rating, Wheat [8, 13]: 0
- Plant response rating, Wheat [8, 14]: 20
- Plant response rating, Wheat [8, 15]: 0
- Plant response rating, Wheat [8, 16]: 20
- Canarygrass plant response rating (0 to 100 scale) [9, 18]: 40
- Plant response rating, Canarygrass [9, 22]: 25
- Plant response rating, Canarygrass [9, 19]: 55
- Plant response rating, Canarygrass [9, 20]: 85
- Chickweed plant response rating (0 to 100 scale) [10, 18]: 75
- Plant response rating, Chickweed [10, 22]: 70
- Plant response rating, Chickweed [10, 19]: 95
- Plant response rating, Chickweed [10, 20]: 100
- Windgrass plant response rating (0 to 100 scale) [11]: 60
- Plant response rating, Windgrass ([11]; 31 g ai/ha, 0 to 100 scale (0 no effect, 100 complete control)): 30
- Plant response rating, Windgrass [11, 21]: 80
- Barley plant response rating (0 to 100 scale) [12, 18]: 10
- Plant response rating, Barley [12, 22]: 5
- Plant response rating, Barley [12, 19]: 25
- Plant response rating, Barley [12, 20]: 50
